According to patent US12023334B2, “Composition including rilpivirine and method for treating tumors or cancer” (APTORUM THERAPEUTICS LIMITED, priority 2019, dated 2024):
pEC50, pIC50: −log10 of the molar value.

Tests used:
A-375 melanoma = conditions: animal experiments (Oncogene 24:3923-3931, 2005); cited from earlier work
[1] = system: PC3 prostate cancer cell lines; conditions: animal experiments (Oncogene 24:3923-3931, 2005); cited from earlier work
pancreatic cancer cells = conditions: in vitro (PloS ONE 10(6):e0130277, 2015); cited from earlier work
Caki-2 = experiment: EC50 in cancer cell line, rilpivirine alone; assay type: cell-based; conditions: Homo sapiens, Kidney
U-937 = experiment: EC50 in cancer cell line, rilpivirine alone; assay type: cell-based; conditions: Homo sapiens, Histiocytic lymphoma
DMS273 = experiment: EC50 in cancer cell line, rilpivirine alone; assay type: cell-based; conditions: Homo sapiens, DMS-273, SCLC
ST486 = experiment: EC50 in cancer cell line, rilpivirine alone; assay type: cell-based; conditions: Homo sapiens, Burkitt's lymphoma
TF-1 = experiment: EC50 in cancer cell line, rilpivirine alone; assay type: cell-based; conditions: Homo sapiens, Erythroleukemia
MOLT-4 = experiment: EC50 in cancer cell line, rilpivirine alone; assay type: cell-based; conditions: Homo sapiens, Acute lymphoblastic leukemia
SK-N-AS = experiment: EC50 in cancer cell line, rilpivirine alone; assay type: cell-based; conditions: Homo sapiens, Neuroblastoma
DOHH-2 = experiment: EC50 in cancer cell line, rilpivirine alone; assay type: cell-based; conditions: Homo sapiens, B-cell lymphoma
HUH-6 = experiment: EC50 in cancer cell line, rilpivirine alone; assay type: cell-based; conditions: Homo sapiens, Liver
SK-N-SH cell line = experiment: MTT cell proliferation assay, SK-N-SH; assay type: cell-based
Method: (§1) In the present invention, the IC50 concentrations required to inhibit the activity of IMR-32 cell line and other neuroblastoma cell lines were determined for rilpivirine and other chemotherapeutic agents, and presented on the two-coordinate plot with x- and y-axes, forming the two points (IC50, rilpivirine, 0) and (0, IC50, chemotherapeutic agents). […] Moreover, the concentration or ratios of rilpivirine in combination with chemotherapeutic agents which provide the same inhibition effect are denoted as point (Crilpivirine, 50, Cchemotherapeutic agents, 50) in the same plot.
(§2) The combination index provides a quantitative measurement of the drug-drug interaction at the given effect level. The combination index (CI) is calculated by following equation: […]
(§3) The IMR-32, SK-N-SH, SH-SY5Y and SK-N-BE(2) tumor cell lines were purchased from American Type Culture Collection (ATCC, Manassas, VA). […] The cells were incubated for 72 hours and then cell proliferation was measured by 3-(4,5-dimethyl-2-thiazolyl)-2,5-diphenyl-2H-tetrazolium bromide (MTT) colorimetric assays (Sigma-Aldrich, Inc., St. Louis, MO). […] Absorbance of each well was measured with a spectrophotometer (uQuant SpectroMAX Gemini Dual-scanning microplate spectro, Bio-tek Instrument Inc.) at 550 nm. Growth inhibition was expressed as the ratio of the mean absorbance of treated cells relative to that of the control.

PC-3 = experiment: EC50 in cancer cell line, rilpivirine alone; assay type: cell-based; conditions: Homo sapiens, Prostate
[2] = Xenograft mouse model, body weight and signs of overt toxicity; assay type: in vivo, female BALB/c nude mice; conditions: rilpivirine 400 mg/kg once daily for 21 consecutive days, oral
Method: (§4) This study employed female BALB/c nude mice, aged 4-5 weeks, obtained from BioLasco Taiwan (under Charles River Laboratories Licensee). The animals were housed in individually ventilated cages (IVC, 36 Mini Isolator system). The allocation for 4 animals was 27×20×14 in cm. All the animals were maintained in a hygienic environment under controlled temperature (20-24° C.) and humidity (30%-70%) with 12-hour light/dark cycle. Free access to standard lab diet [MFG (Oriental Yeast Co., Ltd., Japan)] and autoclaved tap water were granted. All aspects of this work including housing, experimentation, and animal disposal were performed in general accordance with the “Guide for the Care and Use of Laboratory Animals: Eighth Edition” (National Academies Press, Washington, D.C., 2011) in our AAALAC-accredited laboratory animal facility. In addition, the animal care and use protocol was reviewed and approved by the IACUC at Pharmacology Discovery Services, Taiwan.
The IMR-32 tumor cell line was purchased from American Type Culture Collection (ATCC CCL-127, neuroblastoma) and cultured in Pharmacology Discovery Services, Taiwan. The cells were cultured in MEM medium containing 10% fetal bovine serum (FBS), 1 mM sodium pyruvate and 1 mM NEAA at 37° C. in 5% CO2 incubator. Female BALB/c nude mice were used as described in the preceding section. Viable IMR-32 cells (ATCC CCL-127) were subcutaneously (SC) implanted (1×10^7 cells in 1:1 matrigel/complete media mixture at 0.2 mL/mouse) into the right flank of female BALB/c nude mice. Forty-one days post tumor cell implantation (group mean tumor volumes ranging 128 mm^3-130 mm^3), all the animals were randomized into sixteen study groups, each containing eight animals, and dose administrations were initiated (denoted as Day 1). All the experiments were conducted using protocols and conditions approved by the institutional animal care and use committee. The tumor volume, body weight, mortality, and signs of overt toxicity were monitored and recorded twice weekly for 28 days.

EB2 = experiment: EC50 in cancer cell line, rilpivirine alone; assay type: cell-based; conditions: Homo sapiens, Burkitt's lymphoma
TUR = experiment: EC50 in cancer cell line, rilpivirine alone; assay type: cell-based; conditions: Histiocytic lymphoma
T47D = experiment: EC50 in cancer cell line, rilpivirine alone; assay type: cell-based; conditions: Homo sapiens, Breast
IMR-32 tumor = experiment: Xenograft mouse model of neuroblastoma, tumor volume; assay type: in vivo, female BALB/c nude mice; conditions: rilpivirine 400 mg/kg once daily for 21 consecutive days, oral; p<0.05
Method: as §4
The IMR-32 tumor cell line was purchased from American Type Culture Collection (ATCC CCL-127, neuroblastoma) and cultured in Pharmacology Discovery Services, Taiwan. The cells were cultured in MEM medium containing 10% fetal bovine serum (FBS), 1 mM sodium pyruvate and 1 mM NEAA at 37° C. in 5% CO2 incubator. […] The tumor volume, body weight, mortality, and signs of overt toxicity were monitored and recorded twice weekly for 28 days. […]

KU812 = experiment: EC50 in cancer cell line, rilpivirine alone; assay type: cell-based; conditions: Homo sapiens, Chronic myelogenous leukemia
HMCB = experiment: EC50 in cancer cell line, rilpivirine alone; assay type: cell-based; conditions: Homo sapiens, Melanoma
[3] = system: cleaved poly (ADP-ribose) polymerase (PARP) and phosphor-histone H2A.X (p-H2A.X); experiment: Expression of cleaved PARP and p-H2A.X in SK-N-SH; assay type: cell-based; conditions: increasing rilpivirine 0.12, 0.37, 1.11, 3.3, and 10 μM
Daudi = experiment: EC50 in cancer cell line, rilpivirine alone; assay type: cell-based; conditions: Homo sapiens, Burkitt's lymphoma
647-V = experiment: EC50 in cancer cell line, rilpivirine alone; assay type: cell-based; conditions: Homo sapiens, Bladder
[4] = system: cleaved poly (ADP-ribose) polymerase (PARP) and phosphor-histone H2A.X (p-H2A.X); experiment: Expression of cleaved PARP and p-H2A.X in SK-N-BE(2); assay type: cell-based; conditions: increasing rilpivirine 0.12, 0.37, 1.11, 3.3, and 10 μM
SNU-16 = experiment: EC50 in cancer cell line, rilpivirine alone; assay type: cell-based; conditions: Homo sapiens, Stomach
IMR-32 cell line = experiment: MTT cell proliferation assay, IMR-32; assay type: cell-based, human
Method: as §1, §2, §3

D283Med = experiment: EC50 in cancer cell line, rilpivirine alone; assay type: cell-based; conditions: Homo sapiens, D283 Med, Medulloblastoma
CEM-C2 = experiment: EC50 in cancer cell line, rilpivirine alone; assay type: cell-based; conditions: Homo sapiens, Acute lymphoblastic leukemia
PANC-1 = experiment: EC50 in cancer cell line, rilpivirine alone; assay type: cell-based; conditions: Homo sapiens, Pancreas
IM-9 = experiment: EC50 in cancer cell line, rilpivirine alone; assay type: cell-based; conditions: Homo sapiens, Multiple myeloma
JVM-2 = experiment: EC50 in cancer cell line, rilpivirine alone; assay type: cell-based; conditions: Homo sapiens, Mantle cell lymphoma
HuTu80 = experiment: EC50 in cancer cell line, rilpivirine alone; assay type: cell-based; conditions: Homo sapiens, Duodenum
U-87 MG = experiment: EC50 in cancer cell line, rilpivirine alone; assay type: cell-based; conditions: Homo sapiens, Glioblastoma/malignant glioma
CHP-212 = experiment: EC50 in cancer cell line, rilpivirine alone; assay type: cell-based; conditions: Homo sapiens, Neuroblastoma
SR = experiment: EC50 in cancer cell line, rilpivirine alone; assay type: cell-based; conditions: Homo sapiens, Large cell immunoblastic lymphoma
RKO-AS45-1 = experiment: EC50 in cancer cell line, rilpivirine alone; assay type: cell-based; conditions: RKOAS451, Colon
BxPC-3 = experiment: EC50 in cancer cell line, rilpivirine alone; assay type: cell-based; conditions: Homo sapiens, Pancreas
J-RT3-T3-5 = experiment: EC50 in cancer cell line, rilpivirine alone; assay type: cell-based; conditions: Homo sapiens, Acute T-cell leukemia
COR-L105 = experiment: EC50 in cancer cell line, rilpivirine alone; assay type: cell-based; conditions: Homo sapiens, NSCLC
BV-173 = experiment: EC50 in cancer cell line, rilpivirine alone; assay type: cell-based; conditions: Homo sapiens, B-cell precursor leukemia (CML)
Thp1 = experiment: EC50 in cancer cell line, rilpivirine alone; assay type: cell-based; conditions: Homo sapiens, THP-1, Acute monocytic leukemia
[5] = system: cleaved poly (ADP-ribose) polymerase (PARP) and phosphor-histone H2A.X (p-H2A.X); experiment: Expression of cleaved PARP and p-H2A.X in SH-SY5Y; assay type: cell-based; conditions: increasing rilpivirine 0.12, 0.37, 1.11, 3.3, and 10 μM
MOLT-16 = experiment: EC50 in cancer cell line, rilpivirine alone; assay type: cell-based; conditions: Homo sapiens, Acute lymphoblastic leukemia
SH-SY5Y cell line = experiment: MTT cell proliferation assay, SH-SY5Y; assay type: cell-based
Method: as §1, §2, §3

MV-4-11 = experiment: EC50 in cancer cell line, rilpivirine alone; assay type: cell-based; conditions: Homo sapiens, MV4-11, Biphenotypic B myelomonocytic leukemia
SU-DHL-4 = experiment: EC50 in cancer cell line, rilpivirine alone; assay type: cell-based; conditions: Homo sapiens, B-cell non-Hodgkin lymphoma
Jurkat = experiment: EC50 in cancer cell line, rilpivirine alone; assay type: cell-based; conditions: Homo sapiens, Acute lymphoblastic leukemia
SK-N-BE(2) cell line = experiment: MTT cell proliferation assay, SK-N-BE(2); assay type: cell-based
Method: as §1, §2, §3

GA-10 = experiment: EC50 in cancer cell line, rilpivirine alone; assay type: cell-based; conditions: Homo sapiens, Burkitt's lymphoma
EM-2 = experiment: EC50 in cancer cell line, rilpivirine alone; assay type: cell-based; conditions: Homo sapiens, Chronic myelogenous leukemia
SU-DHL-8 = experiment: EC50 in cancer cell line, rilpivirine alone; assay type: cell-based; conditions: Homo sapiens, Large cell lymphoma
MES-SA = experiment: EC50 in cancer cell line, rilpivirine alone; assay type: cell-based; conditions: Homo sapiens, Uterine sarcoma
[6] = Homo sapiens, rilpivirine alone, 72 hours

In the case of `O=C1Nc2ccc(Cl)cc2[C@@](C#CC2CC2)(C(F)(F)F)O1` [efavirenz], the “tumorigenic growth of A-375 melanoma” value (A-375 melanoma) is listed as “antagonize tumorigenic growth”, the “tumorigenic growth of PC3 prostate cancer cell lines” value [1] is listed as “antagonize tumorigenic growth” and the “toxic potential against pancreatic cancer cells” value (pancreatic cancer cells) is listed as “high toxic potential”.
`Cc1cc(/C=C/C#N)cc(C)c1Nc1ccnc(Nc2ccc(C#N)cc2)n1` [rilpivirine] gave a pEC50 (Caki-2) of 5.39, a pEC50 (U-937) of 5.47 and a pEC50 (DMS273) of 5.30. It also gave a pEC50 (ST486) of 5.42, a pEC50 (TF-1) of 5.42 and a pEC50 (MOLT-4) of 5.43. For the same molecule, the pEC50 (SK-N-AS) was 5.32, the pEC50 (DOHH-2) was 5.35 and the pEC50 (HUH-6) was 5.62. The “growth of neuroblastoma cell line under rilpivirine treatment” value (shortened to “growth … under rilpivirine treatment”) (SK-N-SH cell line) was “successfully inhibited”, the pIC50 (SK-N-SH cell line; [6]) was 5.56 and the pEC50 (PC-3) was 5.21. For the same molecule, the body weight loss [2] was “not associated with body weight loss”, the overt toxicities [2] was “no overt toxicities were observed” and the tolerability [2] was “well tolerated”. For the same molecule, the pEC50 (EB2) was 5.32, the pEC50 (TUR) was 5.68 and the pEC50 (T47D) was 5.49. For the same molecule, the “tumor growth compared to negative control group (vehicle)” value (IMR-32 tumor) was “significantly inhibited”, the pEC50 (KU812) was 5.39 and the pEC50 (HMCB) was 5.46. The “expression of cleaved PARP and p-H2A.X” value [3] was “increased gradually”, the pEC50 (Daudi) was 5.40 and the pEC50 (647-V) was 4.91. For the same molecule, the “expression of cleaved PARP and p-H2A.X” value [4] was “increased gradually”, the pEC50 (SNU-16) was 5.37 and the “growth of neuroblastoma cell line IMR-32” value (IMR-32 cell line; 5 μM rilpivirine treatment for 24 hours) was “significantly inhibited”. For the same molecule, the pIC50 (IMR-32 cell line; Homo sapiens, IMR-32, rilpivirine alone, 72 hours) was 5.53, the pEC50 (D283Med) was 5.45 and the pEC50 (CEM-C2) was 5.39. For the same molecule, the pEC50 (PANC-1) was 5.08, the pEC50 (IM-9) was 5.38 and the pEC50 (JVM-2) was 5.56. It also gave a pEC50 (HuTu80) of 5.44, a pEC50 (U-87 MG) of 4.84 and a pEC50 (CHP-212) of 5.49. For the same molecule, the pEC50 (SR) was 5.42, the pEC50 (RKO-AS45-1) was 5.36 and the “toxic potential against pancreatic cancer cells” value (pancreatic cancer cells) was “high toxic potential”. It also gave a pEC50 (BxPC-3) of 4.95, a pEC50 (J-RT3-T3-5) of 5.39 and a pEC50 (COR-L105) of 5.51. The pEC50 (BV-173) was 5.43, the pEC50 (Thp1) was 5.37 and the “expression of cleaved PARP and p-H2A.X” value [5] was “increased gradually”. For the same molecule, the pEC50 (MOLT-16) was 5.47, the “growth … under rilpivirine treatment” value (SH-SY5Y cell line) was “successfully inhibited” and the pIC50 (SH-SY5Y cell line; [6]) was 5.51. The pEC50 (MV-4-11) was 5.31, the pEC50 (SU-DHL-4) was 5.37 and the pEC50 (Jurkat) was 5.43. The “growth … under rilpivirine treatment” value (SK-N-BE(2) cell line) was “successfully inhibited”, the pIC50 (SK-N-BE(2) cell line; Homo sapiens, SKNBE2, rilpivirine alone, 72 hours) was 5.47 and the pEC50 (GA-10) was 5.43. The pEC50 (EM-2) was 5.40, the pEC50 (SU-DHL-8) was 5.38 and the pEC50 (MES-SA) was 5.31.
